Measurements as given in patent publication US11434246B2, “EP4 antagonists” (Eisai R&D Management Co., Ltd., priority 2015, dated 2022).

molecular target: EP4 (Homo sapiens, UniProt P35408); test: EP4 Antagonism by CRE-PLAP Reporter Assay (SE302 cells, PGE2-stimulated); assay type: cell-based; parameters: HEK293 cells express endogenous EP4; endogenous in cells; host or cells: SE302 (HEK293 clone with CRE-PLAP reporter); settings: SE302 (HEK293) cells, 3 ng/mL PGE2, overnight; single or multiple assay average values
Sequence (P35408 whole entry): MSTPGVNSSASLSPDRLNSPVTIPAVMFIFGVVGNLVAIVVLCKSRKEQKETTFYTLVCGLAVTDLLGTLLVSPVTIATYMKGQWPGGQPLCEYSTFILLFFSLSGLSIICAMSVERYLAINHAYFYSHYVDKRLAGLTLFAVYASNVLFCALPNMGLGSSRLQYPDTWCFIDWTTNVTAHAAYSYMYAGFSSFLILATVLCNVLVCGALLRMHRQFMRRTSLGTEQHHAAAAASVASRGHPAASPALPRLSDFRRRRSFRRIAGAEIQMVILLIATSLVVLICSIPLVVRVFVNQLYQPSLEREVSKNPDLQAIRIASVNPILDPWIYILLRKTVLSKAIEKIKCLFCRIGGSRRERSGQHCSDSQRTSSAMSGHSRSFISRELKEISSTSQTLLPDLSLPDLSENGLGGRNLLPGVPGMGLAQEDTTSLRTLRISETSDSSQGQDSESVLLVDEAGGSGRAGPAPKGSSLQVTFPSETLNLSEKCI
Description: PGE2 and [^3H]-labelled PGE2 were purchased from Cayman Chemical (Ann Arbor, Mich.) and Perkin Elmer (Waltham, Mass.), respectively. Mouse breast 4T1 cells (CRL-2539) were obtained from American Tissue Culture Collection. SE302 cell line is a clone of the HEK293 cells containing cAMP response element (CRE) promoter that when activated drives secretion of placental-like alkaline phosphatase (PLAP). HEK293 cells express endogenous EP4 and show induction of PLAP in response to PGE2 and EP4 agonists, but not EP1, 2 or 3 agonists (Chen Q, Muramoto K, Masaaki N, Ding Y, Yang H, Mackey M, Li W, Inoue Y, Ackermann K, Shrota H, Matsumoto I, Spyvee M, Schiller S, Sumida T, Gusovsky F, and Lamphier M. A novel antagonist of the prostaglandin E2 EP4 receptor inhibits Th1 differentiation and Th17 expansion and is orally active in arthritis models. British J Pharmacol, 2010, 160: 292-310). BalB/C female mice at 7-8 week age were purchased from Jackson Laboratory (Bar Harbor, Me.). Mice were maintained under specific pathogen-free conditions.
EP4 Antagonism by CRE-PLAP Reporter Assay: SE302 cells were maintained in DMEM/F12 (50:50) (MediaTech) supplemented with 10% FBS (Tissue Culture Biologicals) plus penicillin/streptomycin. When used for assays, cells were plated in a 96-well plate at 2×10^4 cells/100 μL/well in serum-free assay medium (DMEM/F12 supplemented with 0.1% BSA plus penicillin/streptomycin) and incubated for 4-6 h. Cells were then stimulated with 3 ng/mL of PGE2 in the presence or absence of various concentrations of test compound overnight, and PLAP activity was measured by mixing 15 μL of culture supernatants with 75 μL of Lumi-phos (Lumigen, Inc.) and 60 μL of assay buffer containing 8 mmol/L MgSO4 in 0.1 mol/L carbonate-bicarbonate buffer pH11 in a new 96-well black plate and incubated for 2 h at room temperature. The intensity of luminescence, which reflected the PLAP activity in the supernatant, was quantified with an Envision 2101 Multilabel Reader. Values obtained from DMSO treated samples in the presence of PGE2 were defined as 100% of control, whereas values obtained from DMSO treated samples in the absence of PGE2 were defined as 0% of control. % of control for compound treated samples was calculated as follows: (actual reading−0% of control)/(100% of control−0% of control)×100. IC50 value for each individual experiment was calculated using GraphPad Prism 6.02 (Lake Forest, Calif.) with % of control values.
Compounds of the present invention were assayed according to the methods as described above, and IC50 values, which may be single assay values or multiple assay average values, are summarized in Table 1. Compounds marked “ABS” show absolute stereochemistry.

IC50 [nM]	Structure (SMILES)
3.9	COC(=O)c1ccc([C@H](C)NC(=O)c2c(C(F)(F)F)nn3c2N(Cc2ccc(C(F)(F)F)cc2)CC3)cc1 [Compound 2, Methyl (S)-4-(1-(6-(trifluoromethyl)-1-(4-(trifluoromethyl)benzyl)-2,3-dihydro-1H-imidazo[1,2-b]pyrazole-7-carboxamido)ethyl)benzoate]
3.19	C[C@H](NC(=O)c1c(C(F)(F)F)nn2c1N(Cc1ccc(C(F)(F)F)cc1)CC2)c1ccc(C(=O)O)cc1 [Compound 3, (S)-4-(1-(6-(trifluoromethyl)-1-(4-(trifluoromethyl)benzyl)-2,3-dihydro-1H-imidazo[1,2-b]pyrazole-7-carboxamido)ethyl)benzoic acid]
22.4	C[C@H](NC(=O)c1c(C(F)(F)F)nn2c1N(Cc1ccccc1C(F)(F)F)CC2)c1ccc(C(=O)O)cc1 [Compound 4, (S)-4-(1-(6-(trifluoromethyl)-1-(2-(trifluoromethyl)benzyl)-2,3-dihydro-1H-imidazo[1,2-b]pyrazole-7-carboxamido)ethyl)benzoic Acid]
45.9	C[C@H](NC(=O)c1c(C(F)(F)F)nn2c1N(Cc1cc(C(F)(F)F)cc(C(F)(F)F)c1)CC2)c1ccc(C(=O)O)cc1 [Compound 5, (S)-4-(1-(1-(3,5-bis(trifluoromethyl)benzyl)-6-(trifluoromethyl)-2,3-dihydro-1H-imidazo[1,2-b]pyrazole-7-carboxamido)ethyl)benzoic Acid]
0.14	C[C@H](NC(=O)c1c(C(F)(F)F)nn2c1N(Cc1cc(Cl)cc(C(F)(F)F)c1)CC2)c1ccc(C(=O)O)cc1 [Compound 6, (S)-4-(1-(1-(3-chloro-5-(trifluoromethyl)benzyl)-6-(trifluoromethyl)-2,3-dihydro-1H-imidazo[1,2-b]pyrazole-7-carboxamido)ethyl)benzoic Acid]
0.32	C[C@H](NC(=O)c1c(C(F)(F)F)nn2c1N(Cc1cc(Cl)cc(Cl)c1)CC2)c1ccc(C(=O)O)cc1 [Compound 7, (S)-4-(1-(1-(3,5-dichlorobenzyl)-6-(trifluoromethyl)-2,3-dihydro-1H-imidazo[1,2-b]pyrazole-7-carboxamido)ethyl)benzoic Acid]
8.03	COc1ccc(CN2CCn3nc(C(F)(F)F)c(C(=O)N[C@@H](C)c4ccc(C(=O)O)cc4)c32)cc1 [Compound 8, (S)-4-(1-(1-(4-methoxybenzyl)-6-(trifluoromethyl)-2,3-dihydro-1H-imidazo[1,2-b]pyrazole-7-carboxamido)ethyl)benzoic Acid]
1.41	COc1cccc(CN2CCn3nc(C(F)(F)F)c(C(=O)N[C@@H](C)c4ccc(C(=O)O)cc4)c32)c1 [Compound 9, (S)-4-(1-(1-(3-methoxybenzyl)-6-(trifluoromethyl)-2,3-dihydro-1H-imidazo[1,2-b]pyrazole-7-carboxamido)ethyl)benzoic Acid]
12.5	C[C@H](NC(=O)c1c(C(F)(F)F)nn2c1N(Cc1ccc(OC(F)(F)F)cc1)CC2)c1ccc(C(=O)O)cc1 [Compound 10, (S)-4-(1-(1-(4-(trifluoromethoxy)benzyl)-6-(trifluoromethyl)-2,3-dihydro-1H-imidazo[1,2-b]pyrazole-7-carboxamido)ethyl)benzoic Acid]
0.41	C[C@H](NC(=O)c1c(C(F)(F)F)nn2c1N(Cc1cccc(OC(F)(F)F)c1)CC2)c1ccc(C(=O)O)cc1 [Compound 11, (S)-4-(1-(1-(3-(trifluoromethoxy)benzyl)-6-(trifluoromethyl)-2,3-dihydro-1H-imidazo[1,2-b]pyrazole-7-carboxamido)ethyl)benzoic Acid]
2.23	C[C@H](NC(=O)c1c(C(F)(F)F)nn2c1N(Cc1cccc(Cl)c1)CC2)c1ccc(C(=O)O)cc1 [Compound 12, (S)-4-(1-(1-(3-chlorobenzyl)-6-(trifluoromethyl)-2,3-dihydro-1H-imidazo[1,2-b]pyrazole-7-carboxamido)ethyl)benzoic Acid]
0.44	C[C@H](NC(=O)c1c(C(F)(F)F)nn2c1N(Cc1ccc(Cl)c(Cl)c1)CC2)c1ccc(C(=O)O)cc1 [Compound 13, (S)-4-(1-(1-(3,4-dichlorobenzyl)-6-(trifluoromethyl)-2,3-dihydro-1H-imidazo[1,2-b]pyrazole-7-carboxamido)ethyl)benzoic Acid]
0.58	C[C@H](NC(=O)c1c(C(F)(F)F)nn2c1N(Cc1ccc(F)cc1)CC2)c1ccc(C(=O)O)cc1 [Compound 14, (S)-4-(1-(1-(4-fluorobenzyl)-6-(trifluoromethyl)-2,3-dihydro-1H-imidazo[1,2-b]pyrazole-7-carboxamido)ethyl)benzoic Acid]
1.65	C[C@H](NC(=O)c1c(C(F)(F)F)nn2c1N(Cc1cccc(F)c1)CC2)c1ccc(C(=O)O)cc1 [Compound 15, (S)-4-(1-(1-(3-fluorobenzyl)-6-(trifluoromethyl)-2,3-dihydro-1H-imidazo[1,2-b]pyrazole-7-carboxamido)ethyl)benzoic Acid]
1.4	C[C@H](NC(=O)c1c(C(F)(F)F)nn2c1N(Cc1ccccc1F)CC2)c1ccc(C(=O)O)cc1 [Compound 16, (S)-4-(1-(1-(2-fluorobenzyl)-6-(trifluoromethyl)-2,3-dihydro-1H-imidazo[1,2-b]pyrazole-7-carboxamido)ethyl)benzoic Acid]
1.65	Cc1ccc(CN2CCn3nc(C(F)(F)F)c(C(=O)N[C@@H](C)c4ccc(C(=O)O)cc4)c32)cc1 [Compound 17, (S)-4-(1-(1-(4-methylbenzyl)-6-(trifluoromethyl)-2,3-dihydro-1H-imidazo[1,2-b]pyrazole-7-carboxamido)ethyl)benzoic Acid]
0.64	Cc1cccc(CN2CCn3nc(C(F)(F)F)c(C(=O)N[C@@H](C)c4ccc(C(=O)O)cc4)c32)c1 [Compound 18, (S)-4-(1-(1-(3-methylbenzyl)-6-(trifluoromethyl)-2,3-dihydro-1H-imidazo[1,2-b]pyrazole-7-carboxamido)ethyl)benzoic Acid]
3.6	Cc1ccccc1CN1CCn2nc(C(F)(F)F)c(C(=O)N[C@@H](C)c3ccc(C(=O)O)cc3)c21 [Compound 19, (S)-4-(1-(1-(2-methylbenzyl)-6-(trifluoromethyl)-2,3-dihydro-1H-imidazo[1,2-b]pyrazole-7-carboxamido)ethyl)benzoic Acid]
2.23	CCc1ccc(CN2CCn3nc(C(F)(F)F)c(C(=O)N[C@@H](C)c4ccc(C(=O)O)cc4)c32)cc1 [Compound 20, (S)-4-(1-(1-(4-ethylbenzyl)-6-(trifluoromethyl)-2,3-dihydro-1H-imidazo[1,2-b]pyrazole-7-carboxamido)ethyl)benzoic Acid]
2.85	C[C@H](NC(=O)c1c(C(F)(F)F)nn2c1N(Cc1ccc(C(F)(F)F)cc1)CC2)c1ccc(C(=O)O)c(F)c1 [Compound 21, (S)-2-fluoro-4-(1-(6-(trifluoromethyl)-1-(4-(trifluoromethyl)benzyl)-2,3-dihydro-1H-imidazo[1,2-b]pyrazole-7-carboxamido)ethyl)benzoic Acid]
1.91	C[C@H](NC(=O)c1c(C(F)(F)F)nn2c1N(Cc1ccc(C(F)(F)F)cc1)CC2)c1ccc(C(=O)O)cc1F [Compound 22, (S)-3-fluoro-4-(1-(6-(trifluoromethyl)-1-(4-(trifluoromethyl)benzyl)-2,3-dihydro-1H-imidazo[1,2-b]pyrazole-7-carboxamido)ethyl)benzoic Acid]
